The source of these data is ChEMBL document CHEMBL2073985, “Increase in doxorubicin cytotoxicity by carvedilol inhibition of P-glycoprotein activity” (Biochem Pharmacol, 1999).

SMILES strings stand for the structures.

In the series the target is ATP-dependent translocase ABCB1 (Homo sapiens, UniProt P08183). Nature of the series: TP_TRANSPORTER: increase in Calcein intracellular accumulation (Calcein: 50 mg/L, Carvedilol: 10 uM) in Hs578T-Dox cells. Type of series: functional, cell-based.
Sequence of ATP-dependent translocase ABCB1 (P08183 whole entry): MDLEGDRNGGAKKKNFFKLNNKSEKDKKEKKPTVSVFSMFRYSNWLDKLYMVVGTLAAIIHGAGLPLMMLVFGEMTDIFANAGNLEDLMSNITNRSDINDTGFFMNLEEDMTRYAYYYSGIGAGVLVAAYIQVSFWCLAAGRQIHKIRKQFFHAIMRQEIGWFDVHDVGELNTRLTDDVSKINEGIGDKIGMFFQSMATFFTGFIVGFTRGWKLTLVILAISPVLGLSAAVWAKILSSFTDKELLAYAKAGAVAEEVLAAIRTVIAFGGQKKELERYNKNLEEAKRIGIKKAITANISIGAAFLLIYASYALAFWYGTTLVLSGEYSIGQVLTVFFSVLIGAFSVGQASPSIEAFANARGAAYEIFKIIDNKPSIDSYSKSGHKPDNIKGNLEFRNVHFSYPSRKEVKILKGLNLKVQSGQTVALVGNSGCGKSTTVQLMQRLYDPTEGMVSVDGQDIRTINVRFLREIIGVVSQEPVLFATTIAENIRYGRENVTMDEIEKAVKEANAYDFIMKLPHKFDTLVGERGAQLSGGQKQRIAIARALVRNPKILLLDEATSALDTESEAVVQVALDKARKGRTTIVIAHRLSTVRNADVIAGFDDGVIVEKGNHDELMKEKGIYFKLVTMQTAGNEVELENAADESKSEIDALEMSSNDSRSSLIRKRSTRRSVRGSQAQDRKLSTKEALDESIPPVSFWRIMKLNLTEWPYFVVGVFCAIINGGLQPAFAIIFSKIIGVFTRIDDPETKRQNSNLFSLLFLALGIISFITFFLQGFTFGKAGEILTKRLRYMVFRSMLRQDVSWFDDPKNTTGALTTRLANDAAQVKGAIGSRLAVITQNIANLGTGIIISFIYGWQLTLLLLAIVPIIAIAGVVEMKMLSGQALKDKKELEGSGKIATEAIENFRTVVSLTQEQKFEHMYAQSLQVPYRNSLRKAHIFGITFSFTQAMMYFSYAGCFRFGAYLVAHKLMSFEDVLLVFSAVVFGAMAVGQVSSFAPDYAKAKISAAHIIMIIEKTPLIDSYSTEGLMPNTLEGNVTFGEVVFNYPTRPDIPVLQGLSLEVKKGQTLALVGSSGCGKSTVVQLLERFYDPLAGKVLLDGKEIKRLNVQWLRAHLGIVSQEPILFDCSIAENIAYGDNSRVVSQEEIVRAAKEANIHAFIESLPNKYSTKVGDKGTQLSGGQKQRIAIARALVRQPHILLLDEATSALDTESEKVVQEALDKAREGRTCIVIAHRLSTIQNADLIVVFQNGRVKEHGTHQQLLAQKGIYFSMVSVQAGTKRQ

With `COc1ccccc1OCCNCC(O)COc1cccc2[nH]c3ccccc3c12` (stereo unspecified) [CARVEDILOL], the Activity entry was “inhibitor [+]”.
